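All cell lines were grown in 96-well plates and treated with compound for 48 hours. TGI: concentration producing complete growth inhibition.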
Columns and labels:
Experiment in all cases: growth of human tumour cells (NCI), 48 h
OVCAR-4 ovarian = test system: OVCAR-4 ovarian
CCRF-CEM leukemia = test system: CCRF-CEM leukemia
DLD-1 colon = test system: DLD-1 colon
NCI-H226 lung = test system: NCI-H226 lung
HT29 colon = test system: HT29 colon
LOX IMVI melanoma = test system: LOX IMVI melanoma
HOP-92 NSCLC = test system: HOP-92 NSCLC
K-562 leukemia = test system: K-562 leukemia
SF-268 CNS = test system: SF-268 CNS
KM12 colon = test system: KM12 colon
M19-MEL melanoma = test system: M19-MEL melanoma
SF-539 CNS = test system: SF-539 CNS
RXF-631 renal = test system: RXF-631 renal
OVCAR-8 ovarian = test system: OVCAR-8 ovarian
U251 CNS = test system: U251 CNS
SNB-75 CNS = test system: SNB-75 CNS
OVCAR-3 ovarian = test system: OVCAR-3 ovarian
KM20L2 colon = test system: KM20L2 colon
HL-60(TB) leukemia = test system: HL-60(TB) leukemia
SK-MEL-28 melanoma = test system: SK-MEL-28 melanoma
EKVX NSCLC = test system: EKVX NSCLC
SK-MEL-2 melanoma = test system: SK-MEL-2 melanoma
SW-620 colon = test system: SW-620 colon
TK-10 renal = test system: TK-10 renal
NCI-H23 lung = test system: NCI-H23 lung
UACC-257 melanoma = test system: UACC-257 melanoma
NCI-H522 lung = test system: NCI-H522 lung
COLO 205 colon = test system: COLO 205 colon
M14 melanoma = test system: M14 melanoma
DMS 273 small cell lung = test system: DMS 273 small cell lung
XF 498 CNS = test system: XF 498 CNS
786-0 renal = test system: 786-0 renal
UO-31 renal = test system: UO-31 renal
NCI-H460 lung = test system: NCI-H460 lung
SN12C renal = test system: SN12C renal
MOLT-4 leukemia = test system: MOLT-4 leukemia
SR leukemia = test system: SR leukemia
SNB-19 CNS = test system: SNB-19 CNS
SK-OV-3 ovarian = test system: SK-OV-3 ovarian
RXF 393 renal = test system: RXF 393 renal
SF-295 CNS = test system: SF-295 CNS
LXFL 529 NSCLC = test system: LXFL 529 NSCLC
MALME-3M melanoma = test system: MALME-3M melanoma
CAKI-1 renal = test system: CAKI-1 renal
HOP-18 NSCLC = test system: HOP-18 NSCLC
ACHN renal = test system: ACHN renal
HOP-62 NSCLC = test system: HOP-62 NSCLC
A549 NSCLC = test system: A549 NSCLC
DMS 114 small cell lung = test system: DMS 114 small cell lung
RPMI-8226 leukemia = test system: RPMI-8226 leukemia
SK-MEL-5 melanoma = test system: SK-MEL-5 melanoma
HCC-2998 colon = test system: HCC-2998 colon
OVCAR-5 ovarian = test system: OVCAR-5 ovarian
UACC-62 melanoma = test system: UACC-62 melanoma
HCT-116 colon = test system: HCT-116 colon

Measured: TGI

CN(C)c1ccc(C=C2C(=O)OC(C)(C)OC2=O)cc1Br
> 100 µM: all assays above

— PubChem BioAssay (NCI)
